From paper PMC6693746 (PLoS Genetics, 2019) come the findings set out here.

The structures appear in SMILES notation.

One assay addresses T1, ErGPCR-2 (Helicoverpa armigera, UniProt A0A0U1ZWU3).
T1 construct: ErGPCR-2-GFP-His, 7TM region and added signal peptide (GenBank AKA95280.1), isolated from Sf9 cells
T1 sequence (A0A0U1ZWU3 430-703 limits assumed): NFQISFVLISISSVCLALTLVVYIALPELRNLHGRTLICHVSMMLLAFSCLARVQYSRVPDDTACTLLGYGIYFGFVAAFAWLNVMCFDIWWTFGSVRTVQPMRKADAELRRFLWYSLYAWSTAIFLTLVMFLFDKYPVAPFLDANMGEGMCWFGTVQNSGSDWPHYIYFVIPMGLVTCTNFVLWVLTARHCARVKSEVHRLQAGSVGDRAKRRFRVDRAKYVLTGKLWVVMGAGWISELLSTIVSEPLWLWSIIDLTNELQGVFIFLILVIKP
In words: saturation binding with isolated receptor, […] enzyme immunoassay.

Assay [1] addresses T2, dopamine receptor DopEcR (Helicoverpa armigera, UniProt A0A386QW71, T113A/W160A/Y109A/Y68A).
T2 construct: DopEcR-M-GFP-His, isolated from Sf9 cells
In words: saturation binding with isolated mutant receptor, […] enzyme immunoassay (lower Bmax).

Assay [2] has as its target T3, dopamine receptor DopEcR (Helicoverpa armigera, UniProt A0A386QW71).
T3 construct: DopEcR-GFP-His (GenBank MG596302), isolated from Sf9 cells
T3 sequence (A0A386QW71 1-343): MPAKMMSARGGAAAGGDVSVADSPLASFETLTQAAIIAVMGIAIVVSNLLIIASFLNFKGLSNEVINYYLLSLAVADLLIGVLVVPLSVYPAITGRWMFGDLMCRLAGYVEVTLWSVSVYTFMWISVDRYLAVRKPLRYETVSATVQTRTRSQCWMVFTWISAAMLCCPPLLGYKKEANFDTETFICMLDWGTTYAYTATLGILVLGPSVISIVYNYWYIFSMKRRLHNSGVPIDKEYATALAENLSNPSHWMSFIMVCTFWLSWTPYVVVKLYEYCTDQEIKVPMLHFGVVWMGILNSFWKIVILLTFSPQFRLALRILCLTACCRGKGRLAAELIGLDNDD
The assay can be described thus: saturation binding with isolated receptor, […] enzyme immunoassay; also displacement of DA (Ki […]).

Assay [3] has as its target dopamine receptor DopEcR (Helicoverpa armigera, UniProt A0A386QW71). The assay can be described thus: biochemical.

By Kd is commonly meant the free concentration of one partner at which half of the binding sites on the other are occupied at equilibrium, for simple one-to-one binding. The low end stands for higher affinity, the high end for lower affinity. Consider `CC(C)(O)CC[C@@H](O)[C@](C)(O)[C@H]1CC[C@@]2(O)C3=CC(=O)[C@@H]4C[C@@H](O)[C@@H](O)C[C@]4(C)[C@H]3CC[C@]12C` [20E, 20-hydroxyecdysone], for which the Kd was 23.3 ± 3.3 nM at ErGPCR-2, 20.5 ± 1.98 nM at dopamine receptor DopEcR [1] and 18 ± 3 nM on dopamine receptor DopEcR [2].
Compound `NCCc1ccc(O)c(O)c1` [DA, dopamine] yielded a Kd on dopamine receptor DopEcR [3] of 448 ± 101 nM.
